Measured values as given in ChEMBL document CHEMBL5154699 (Eur J Med Chem, 2022).

Assays:
[1] = biological target: T1, Sigma intracellular receptor 2 (Rattus norvegicus, UniProt Q5U3Y7); test: Displacement of [3H]-di-o-tolylguanidine from sigma2 receptor in rat liver membrane measured by competitive radioligand receptor binding assay; type: cell membranes
T1 sequence (Q5U3Y7 whole entry): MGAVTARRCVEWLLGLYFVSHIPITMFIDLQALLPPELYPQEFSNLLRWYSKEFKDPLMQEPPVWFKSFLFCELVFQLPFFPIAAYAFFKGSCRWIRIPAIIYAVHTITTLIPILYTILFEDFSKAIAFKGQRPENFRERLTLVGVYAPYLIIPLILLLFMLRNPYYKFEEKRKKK

[2] = biological target: Kappa-type opioid receptor (Cavia porcellus, UniProt P41144); test: Displacement of [3H]-U69593 from KOR in guinea pig brain membranes measured by competitive radioligand receptor binding assay; type: cell membranes, Membrane
[3] = biological target: Sigma non-opioid intracellular receptor 1 (Cavia porcellus, UniProt Q60492); test: Displacement of [3H]-(+)-pentazocine from sigma1 receptor in guinea pig brain membrane measured by competitive radioligand receptor binding assay; type: cell membranes
[4] = biological target: Delta-type opioid receptor (Rattus norvegicus, UniProt P33533); test: Displacement of [3H]-DPDPE from DOR in rat brain membranes measured by competitive radioligand receptor binding assay; type: cell membranes, Membrane
[5] = biological target: Mu-type opioid receptor (Cavia porcellus, UniProt P97266); test: Displacement of [3H]-DAMGO from MOR in guinea pig brain membranes measured by competitive radioligand receptor binding assay; type: cell membranes, Membrane

Compound | Ki [1] | Ki [2] | Ki [3] | Ki [4] | Ki [5]
O=C(Cc1ccc(Cl)c(Cl)c1)N1CC[C@H]2CC[C@@H](N3CCCC3)[C@@H]1C2 | 154 nM | – | – | – | –
O=C(Cc1ccc(Cl)c(Cl)c1)N1CCCCC1CN1CCCC1 (stereo not drawn) | – | 0.24 nM | – | – | –
O=C(Cc1ccc(Cl)c(Cl)c1)N1CC[C@H]2C[C@@H](N3CCCC3)[C@@H]1C2 | 534 nM | 7 nM | 56 nM | 542 nM | –
O=C(Cc1ccc(Cl)c(Cl)c1)N1CCC2CC1[C@@H](N1CCCC1)C2 (stereo partly drawn) | – | 862 nM | – | – | –
O=C(Cc1ccc(Cl)c(Cl)c1)N1CCN2CC[C@@H](N3CCCC3)C1C2 (stereo partly drawn) | – | 73 nM | – | – | –
COC(=O)N1CCN(C(=O)Cc2ccc(Cl)c(Cl)c2)[C@H](CN2CCCC2)C1 | – | 0.46 nM | – | – | –
O=C(Cc1ccc(Cl)c(Cl)c1)N1CC[C@@H]2CC[C@H](N3CCCC3)[C@H]1C2 | 487 nM | – | – | – | –
CN(C)[C@@H]1CCC2CCN(C(=O)Cc3ccc(Cl)c(Cl)c3)C1C2 (mixture of isomers) | 608 nM | – | – | – | –
O=C(Cc1ccc(Cl)c(Cl)c1)N1CCN2CC[C@H](N3CCCC3)C1C2 (stereo partly drawn) | – | > 1000 nM | – | – | –
O=C(Cc1ccc(Cl)c(Cl)c1)N1CC[C@H]2C[C@@H]1[C@@H](N1CCCC1)C2 | 171 nM | 1750 nM | 10 nM | – | –
CN(C)[C@@H]1C[C@@H]2CCN(C(=O)Cc3ccc(Cl)c(Cl)c3)[C@H]1C2 | 811 nM | 13 nM | 292 nM | – | > 1000 nM
CN(C)[C@H]1C[C@H]2CCN(C(=O)Cc3ccc(Cl)c(Cl)c3)[C@@H]1C2 | 213 nM | 531 nM | 17 nM | – | –
O=C(Cc1ccc(Cl)c(Cl)c1)N1CCC2CC1[C@H](N1CCCC1)C2 (stereo partly drawn) | – | 7 nM | – | – | –
